The source of these data is article PMC7539012, “Hyperphosphorylated tau aggregation and cytotoxicity modulators screen identified prescription drugs linked to Alzheimer's disease and cognitive functions” (Scientific Reports, 2020).

Counter-ions that a name gives are not always drawn. Where a SMILES comes first, the peptide text is derived from it. [ ]: non-standard residue; d: D form. pGlu = O=C1CC[C@@H](C(=O)O)N1; Thz = O=C(O)[C@@H]1CSCN1

The first assay deals with T1, 1N4R p-tau.
T1 construct: made in house; host or cells: E. coli (PIMAX system)
Briefly: p-tau aggregation modulator screen of 1280-compound library (ThS fluorescence net change over 16 h).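 For ThS net change: 30 µM compound with 6 µM p-tau over 16 h.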 It is filed as biochemical. Also on record: key to PTAI>3SD: *: PTAI>3SD.
Details: not given
With `c1ccc2c(c1)Nc1ccccc1S2` [Phenothiazine], the ThS net change is given as 421.

With `CC(COc1ccccc1)N(CCCl)Cc1ccccc1` (stereo not drawn) [Phenoxybenzamine hydrochloride], the ThS net change was 560.

As to `NC(=O)OCCCc1ccccc1` [Phenprobamate], the ThS net change was 323. In the case of `CC(N)C(O)c1ccccc1` (stereo not drawn) [Phenylpropanolamine hydrochloride], the ThS net change was 395. For the compound `CC[N+]1(C)CCCC(OC(=O)C(O)(c2ccccc2)c2ccccc2)C1` (stereo not drawn) [Pipenzolate bromide], the ThS net change is 395.

The assay is the same for the next values; noted with them: 1280-compound library screen; ThS fluorescence net change over 16 h.
`O=C1c2ccccc2C(=O)C1c1ccccc1` [Phenindione] showed a ThS net change of 378. In turn, `CC(N/C(=N\C#N)Nc1ccncc1)C(C)(C)C` (stereo not drawn) [Pinacidil] registered a ThS net change of 391.

`CCc1ccc(CCOc2ccc(CC3SC(=O)NC3=O)cc2)nc1` (stereo not drawn) [Pioglitazone] yielded a ThS net change of 410.

For `CCN1CCCC(OC(=O)C(c2ccccc2)c2ccccc2)C1` (stereo not drawn) [Piperidolate hydrochloride], the ThS net change came to 406. Turning to `NC(=O)CN1CCCC1=O` [Piracetam], the ThS net change stood at 406.

The compound `Cc1nc2ccccn2c(=O)c1CCN1CCC(C(=O)c2ccc(F)cc2)CC1` [Pirenperone] returned a ThS net change of 388.

`Cl.c1cnc(N2CCN(Cc3ccc4c(c3)OCO4)CC2)nc1` [Piribedil hydrochloride] showed a ThS net change of 392.

`CCn1cc(C(=O)O)c(=O)c2cnc(N3CCCC3)nc21` [Piromidic acid] registered a ThS net change of 394. For `CC(=O)Nc1ccc(OCC(O)CNC(C)C)cc1` (stereo not drawn) [Practolol], the ThS net change was 383. Same read-out and setting: next, `CCCN[C@H]1CCc2nc(N)sc2C1` [Pramipexole dihydrochloride]: 385; `CCCCOc1ccc(OCCCN2CCOCC2)cc1` [Pramoxine hydrochloride]: 381.

The same assay, now with this note: 1280-compound library screen; […].
In turn, `CC(Oc1ccccc1)C(=O)N[C@@H]1C(=O)N2[C@@H]1SC(C)(C)[C@@H]2C(=O)[O-].[K+]` (stereo partly drawn) [Phenethicillin potassium salt] gave a ThS net change of 387. Still for that read-out and setting: next, `CC(C)(N)Cc1ccccc1.Cl` [Phentermine hydrochloride]: 408. Compound `C=C(C)[C@@H]1[C@H]2OC(=O)[C@@H]1[C@]1(O)C[C@H]3O[C@]34C(=O)O[C@H]2[C@]14C` [Picrotoxinin] registered a ThS net change of 390. Still for that read-out and setting: the result for `CC[C@@H]1C(=O)OC[C@@H]1Cc1cncn1C` [Pilocarpine nitrate] reads 378; that for `COc1cc([C@@H]2c3cc4c(cc3[C@H](O)[C@H]3COC(=O)[C@H]23)OCO4)cc(OC)c1OC` [Podophyllotoxin], 402. The same measure, in the same setting: next, `C[n+]1ccccc1/C=N/O` [Pralidoxime chloride]: 397.

The assay is the same for the next values; noted with them: flag: p-tau aggregation inhibitor, ThS net change more than 3 SD from mean.
Regarding `Nc1ccc(/N=N/c2ccccc2)c(N)n1` [Phenazopyridine hydrochloride], the “PTAI>3SD” value is “*”.

The same assay, now with this note: library screen, ThS fluorescence net change over 16 h with p-tau.
Consider `Nc1ccc(/N=N/c2ccccc2)c(N)n1` [Phenazopyridine hydrochloride], for which the ThS net change came to 12. Same read-out and setting: the result for `CN(C)CCC(c1ccccc1)c1ccccn1` (stereo not drawn) [Pheniramine maleate] reads 318; that for `CN1CCC(=C2c3ccccc3Sc3ccccc32)CC1` [Pimethixene maleate], 320; that for `O=c1[nH]c2ccccc2n1C1CCN(CCCC(c2ccc(F)cc2)c2ccc(F)cc2)CC1` [Pimozide], 274. The same measure, in the same setting: the result for `CC(=O)c1ccc2c(c1)N(CCCN1CCC(CCO)CC1)c1ccccc1S2` [Piperacetazine] reads 243. Still for that read-out and setting: next, `CN1CCN(CC(=O)N2c3ccccc3C(=O)Nc3cccnc32)CC1` [Pirenzepine dihydrochloride]: 322; `O=C(Nc1cccc2c(=O)cc(-c3nnn[nH]3)oc12)c1ccc(OCCCCc2ccccc2)cc1` [Pranlukast]: 288.

The assay is the same for the next values; noted with them: p-tau aggregation modulator screen of 1280-compound library; ThS fluorescence net change.
`NNCCc1ccccc1` [Phenelzine sulfate] gave a ThS net change of 369. Compound `[H]/N=C(/N)N/C(=N/[H])NCCc1ccccc1` [Phenformin hydrochloride] registered a ThS net change of 369. As to `Cc1ccc(N(CC2=NCCN2)c2cccc(O)c2)cc1` [Phentolamine hydrochloride], the ThS net change came to 334. In turn, `CC(C)NCC(O)COc1cccc2[nH]ccc12` (stereo not drawn) [Pindolol] came in with a ThS net change of 331. The compound `CCn1cc(C(=O)O)c(=O)c2cnc(N3CCNCC3)nc21` [Pipemidic acid] returned a ThS net change of 377. Compound `CCN1CCN(C(=O)N[C@@H](C(=O)N[C@@H]2C(=O)N3[C@@H]2SC(C)(C)[C@@H]3C(=O)O)c2ccccc2)C(=O)C1=O` [Piperacillin sodium salt] had a ThS net change of 354.

In turn, `CN1C(C(=O)Nc2ccccn2)=C(O)c2ccccc2S1(=O)=O` [Piroxicam] returned a ThS net change of 329. `CC(C(=O)O)c1ccc2c(c1)Cc1cccnc1O2` (stereo not drawn) [Pranoprofen] had a ThS net change of 345.

In turn, `C[C@]12C=CC(=O)C=C1CC[C@@H]1[C@@H]2[C@@H](O)C[C@@]2(C)[C@H]1CC[C@]2(O)C(=O)CO` [Prednisolone] yielded a ThS net change of 351. Same read-out and setting: next, `C[C@]12C=CC(=O)C=C1CC[C@@H]1[C@@H]2C(=O)C[C@@]2(C)[C@H]1CC[C@]2(O)C(=O)CO` [Prednisone]: 366.

Still in this assay, the particulars now being: p-tau aggregation modulator screen of 1280-compound library; […].
`COc1ccc(C(=O)NCc2cccnc2)cc1C(=O)NCc1cccnc1.O` [Picotamide monohydrate] yielded a ThS net change of 355.

With `COc1cc2nc(N3CCN(C(=O)c4ccco4)CC3)nc(N)c2cc1OC` [Prazosin hydrochloride], the ThS net change amounted to 367.

The assay is the same for the next values; noted with them: p-tau aggregation modulator screen of the compound library, ThS fluorescence net change.
In turn, `CN1C(=O)CC(c2ccccc2)C1=O` (stereo not drawn) [Phensuximide] had a ThS net change of 453. Same read-out and setting: next, `CCCCC1C(=O)N(c2ccccc2)N(c2ccccc2)C1=O` [Phenylbutazone]: 413; `O=C(O)c1ccccc1C(=O)Nc1ccc(S(=O)(=O)Nc2nccs2)cc1` [Phthalylsulfathiazole]: 425. Still for that read-out and setting: next, `O=C1CC[C@@H](C(=O)N2CSC[C@H]2C(=O)O)N1` [Pidotimod] ([pGlu]-[Thz]-OH): 441; `NS(=O)(=O)c1cc(C(=O)O)cc(N2CCCC2)c1Oc1ccccc1` [Piretanide]: 435. Still for that read-out and setting: next, `CS(=O)(=O)O.Cc1ccc2c(c1)c1c3n2CCNC3CCC1` (stereo not drawn) [Pirlindole mesylate]: 461; `CC(C)(C)C(=O)OCOC(=O)[C@@H]1N2C(=O)[C@@H](NC(=O)[C@H](N)c3ccccc3)[C@H]2SC1(C)C` [Pivampicillin]: 481. The compound `CC(C)(C)C(=O)OCOC(=O)[C@@H]1N2C(=O)[C@@H](/N=C/N3CCCCCC3)[C@H]2SC1(C)C` [Pivmecillinam hydrochloride] came in with a ThS net change of 423. Same read-out and setting: the result for `CN1CCC(=C2c3ccccc3CCc3sccc32)CC1.O=C(O)CC(O)C(=O)O` [Pizotifen malate] reads 437; that for `CC[C@H](C)C(=O)O[C@H]1C[C@H](O)C=C2C=C[C@H](C)[C@H](CC[C@@H](O)C[C@@H](O)CC(=O)O)[C@H]21` [Pravastatin], 467. As to `O=C(C1CCCCC1)N1CC(=O)N2CCc3ccccc3C2C1` (stereo not drawn) [Praziquantel], the ThS net change came to 418. `CCOC(=O)O[C@]1(C(=O)COC(=O)CC)CC[C@H]2[C@@H]3CCC4=CC(=O)C=C[C@]4(C)[C@H]3[C@@H](O)C[C@@]21C` [Prednicarbate, prednicarbate] showed a ThS net change of 910.
